Test results reported in US20250346635A1, “VASCULAR ENDOTHELIAL GROWTH FACTOR RECEPTOR-1 (VEGFR-1) INHIBITORS FOR PROMOTING MYELINATION AND NEUROPROTECTION” (ICM (INSTITUT DU CERVEAU ET DE LA MOELLE ÉPINIÉRE), priority 2022, published 2025).

Columns and labels:
[1] = system: rat primary OPC cultures; test: OPC differentiation in rat primary OPC cultures (MBP+Sox10+ cells); assay type: cell-based; details: 500 nM, 5 days in vitro
Description: Rat primary OPC cultures were obtained from neonatal pups (P0-P1). Brains were dissected, cerebellar cortices and meninges were removed. Brain tissues were next mechanically and enzymatically dissociated. After filtration and centrifugation, mixed cells of astrocytes, microglia and OPCs was cultured in DMEM medium on polyornithine-coated flasks. After 13-14 days of culture, microglial cells were removed by shaking during 2 h. OPCs were next collected after 18 h of shaking, followed by differential adhesion. OPCs purification was validated by immunostaining of Olig2 and Sox10. To induce differentiation, cells were kept in proliferation medium (DMEM-F12, 1% PS, FGF, PDGF, 1% laminin, Biotin, 2% B27, N1 mix) for 24 h and then switched to a differentiation medium with the same composition but deprived of FGF and PDGF. Cells were incubated at 37° C. (5% CO2) for 5 days and the medium was partially replaced every 2 days. Cells were then fixed in 2% paraformaldehyde and immunostained with Sox10 and MBP. Cells were incubated for 2 hours with primary antibodies Sox10 (Goat 1/100) and MBP (Rabbit 1/500) diluted in 4% BSA in PBS 0.1M/0.1% Triton. After washes, cells were then incubated with the secondary antibody (anti-Goat Alexa647, anti-Rabbit Alexa488 and Dapi) for 1 hour and finally washed in PBS 0.1M and mounted in Fluoromount medium. […]
Oligodendrocytes differentiation was assessed by analyzing the fold increase of MBP^+Sox10^+ cells in treated conditions relative to the basal condition. The percentage of MBP^+Sox10^+ cells were quantified after treatments with pan-VEGFRs and selective VEGFR-1 antagonists and compared with the basal medium. […] Myelination was assessed using organotypic cerebellar slices generated from P7 mice cerebellum and the effect of VEGFRs sub-types antagonists on myelination was analyzed after immunostaining for Sox10 for oligodendroglia, MBP for myelin (white) and calbindin (gray). […] The myelination index for each condition was quantified as the percentage of MBP+CaBP+ axons over the total CaBP+ axonal surface area and normalized relatively to basal condition.

[2] = system: Purkinje cells; test: Neuroprotection of Purkinje cells in organotypic cerebellar slices (CaBP immunostaining); assay type: cell-based; details: 10 days in vitro, slices from P0 mouse
Description: (§1) Organotypic cerebellar slices were generated from brains of postnatal day 0 (P0) and P7 mouse pups. Briefly, cerebella were dissected and cut into 350 μm slices. Cerebellar slices from the vermis were collected and then cultured on Millicell cell culture inserts (Millipore) in 6-wellplates in a medium composed of 50% Basal Medium Eagle, 25% Hank solution (HBSS), 25% inactivated horse serum, 5 mg/ml high-glucose, 1 mM L-glutamine, 0.2% penicillin-streptomycin. Slices were incubated at 37° C. (5% CO2) for 10 days (slices from P0) or 3 days (slices from P7). The culture medium was replaced every 2-3 days. For immunohistochemistry, slices were fixed in 4% paraformaldehyde and immunostained for CaBP and MBP. Briefly, slices were incubated in 4% BSA/0.2% triton for 1 hour and next incubated overnight with the following primary antibodies: rabbit anti-CaBP (dilution: 1/10000) and rat anti-MBP (dilution: 1/250). After several washes in PBS 0.1M, slices were then incubated with the secondary antibodies (anti-rabbit alexaFluor555, anti-mouse alexaFluor488) and Dapi for 2 hours and finally washed in PBS 0.1M and mounted in Fluoromount medium. Flurorescence imaging were performed with a confocal microscopy NIKON A1R-HD25.
The neuroprotective effects of the drugs were assessed by evaluating the density of Purkinje cells in basal medium alone and in basal medium supplemented with VEGFRs inhibitors. Organotypic cerebellar slices obtained from P0 mouse (as described above) were cultured for 10 days in vitro in basal medium alone, or in the basal medium supplemented either with pan-VEGFRs inhibitors, VEGFR-2/3 specific inhibitor (Telatinib) or with VEGFR-1 selective and specific inhibitors (SU14813 and ZM306416), respectively. All compounds were used at 500 nM, except ZM306416 that was used at 30 μM. After treatments, slices were immunostained for CaBP, as described above.

[3] = system: organotypic cerebellar slices; test: Myelination in organotypic cerebellar slices from P7 mice (MBP/CaBP); assay type: cell-based; details: 3 days ex vivo, slices from P7 mouse
Description: as §1
Oligodendrocytes differentiation was assessed by analyzing the fold increase of MBP^+Sox10^+ cells in treated conditions relative to the basal condition. The percentage of MBP^+Sox10^+ cells were quantified after treatments with pan-VEGFRs and selective VEGFR-1 antagonists and compared with the basal medium. Results are shown as differentiation fold increase relative to the basal condition. Myelination was assessed using organotypic cerebellar slices generated from P7 mice cerebellum and the effect of VEGFRs sub-types antagonists on myelination was analyzed after immunostaining for Sox10 for oligodendroglia, MBP for myelin (white) and calbindin (gray). Slices were cultured in basal medium (control condition), or in the basal medium supplemented either with 9cis-RA (used as a positive control of myelination) or with VEGFR-1 selective and specific inhibitor (SU14813 and ZM306416), respectively. All compounds were used at 500 nM, except ZM306416 that has been used at 30 μM. The myelination index for each condition was quantified as the percentage of MBP+CaBP+ axons over the total CaBP+ axonal surface area and normalized relatively to basal condition.

[4] = system: rat primary OPC cultures; test: OPC differentiation (Olig2+MBP+ cells/Olig2+ cells) after VEGFR-1 shRNA or blocking peptide; assay type: cell-based; details: blocking peptide vs control (basal medium), 5 days in differentiation medium
Description: Rat primary OPC cultures were obtained from neonatal pups (P0-P1). Brains were dissected, cerebellar cortices and meninges were removed. Brain tissues were next mechanically and enzymatically dissociated. After filtration and centrifugation, mixed cells of astrocytes, microglia and OPCs was cultured in DMEM medium on polyornithine-coated flasks. After 13-14 days of culture, microglial cells were removed by shaking during 2 h. OPCs were next collected after 18 h of shaking, followed by differential adhesion. OPCs purification was validated by immunostaining of Olig2 and Sox10. To induce differentiation, cells were kept in proliferation medium (DMEM-F12, 1% PS, FGF, PDGF, 1% laminin, Biotin, 2% B27, N1 mix) for 24 h and then switched to a differentiation medium with the same composition but deprived of FGF and PDGF. Cells were incubated at 37° C. […]
For RT-qPCR, transduction at MOI 8 and MOI 2 were used. […] For immunocytochemistry, transfection with MOI 4 was used and labelling with Olig2 and MBP to quantify Olig2+MBP+ differentiated oligodendrocytes.
Our data confirmed efficient lentivirus transduction with multiplicity of infection 4 (MOI 4) and knock-down of VEGFR-1 (FIG. 5A). […] To do so, we quantified Olig2+MBP+ differentiated oligodendrocytes over the total Olig2+ oligodendroglial cells (ratio of Olig2+MBP+ cells/Olig2+ cells) for each condition.

[5] = system: organotypic cerebellar slices; test: Myelination in organotypic cerebellar slices treated with VEGFR-1 blocking peptide; assay type: cell-based, mouse; details: 10 μM, from 5 to 10 days in vitro
Description: as §1
Mouse cerebellar slices were prepared as previously described. […]

Row | Compound | number of SOX10+MBP+ differentiated oligodendrocytes relative to basal condition [1] | neuroprotection / number of Purkinje cells relative to basal condition ([2]; 500 nM) | MBP+ mature oligodendrocytes in organotypic cerebellar slices ([3]; 500 nM) | further results
1 | CNC(=O)c1cc(COc2nnc(Nc3ccc(Cl)cc3)c3ccoc23)ccn1 [Telatinib] | significant increase | but not of VEGFR-2/3 (Telatinib), enhance neuroprotection | – | –
2 | CNC(=O)c1cccc2cc(Oc3ccnc4cc(OCC5(N)CC5)c(OC)cc34)ccc12 [Lucitanib] | significant increase | higher number of Purkinje cells with respect to the basal condition | numerous MBP^+ mature oligodendrocytes | –
3 | GNQWFI [VEGFR-1-blocking peptide] | – | – | – | fold increase in the number of Olig2+MBP+ cells [4]: 1.18±0.19 fold; ex-vivo myelination (MBP+CaBP+ myelinated axons) [5]: enhances ex-vivo myelination
4 | COc1cc2ncnc(Nc3ccc(Cl)cc3F)c2cc1OC [ZM306416] | – | – | – | MBP+ mature oligodendrocytes in organotypic cerebellar slices ([3]; 30 μM): numerous MBP^+ mature oligodendrocytes; myelination index (density of myelinated axons) vs basal, 9 cis-RA, VEGFR-2/3 inhibitor and pan-VEGFR inhibitors ([3]; 30 μM): density of myelinated axons was higher; neuroprotection / number of Purkinje cells relative to basal condition ([2]; 30 μM): enhance neuroprotection of Purkinje cells
5 | Cc1[nH]c(C=C2C(=O)Nc3ccc(F)cc32)c(C)c1C(=O)NC[C@H](O)CN1CCOCC1 [SU14813] | significant increase | enhance neuroprotection of Purkinje cells | numerous MBP^+ mature oligodendrocytes | myelination index (density of myelinated axons) vs basal, 9 cis-RA, VEGFR-2/3 inhibitor and pan-VEGFR inhibitors ([3]; 500 nM): density of myelinated axons was higher
